Patent US20240069027A1, “USE OF NITROGEN-DOPED CARBON FLUORESCENT QUANTUM DOT IN PREPARATION OF PRODUCT FOR DETECTING AEROBIC GLYCOLYSIS” (SHANGHAI NINTH PEOPLE'S HOSPITAL, SHANGHAI JIAOTONG …, priority 2020, published 2024)

Test system: A375 cells
Assay: Aerobic glycolysis (NAD+) fluorescence of PFK15-treated A375 cells read out with C3N quantum dots
Assay type: cell-based
Details: PFK15 20 nM, 12 h; then C3N quantum dots 1 μg/mL 2 h at 25° C.; excitation 400 nm
Description: A375 cells were selected as the samples to be tested with a cell concentration of 10^5.
[…] (PFK15, 20 nM) was added to the cell samples to be tested and incubated for 12 h. C3N quantum dots (with a diameter of 1 nm, a concentration of 1 μg/mL, a solvent of saline) were selected as the aerobic glycolysis detection product. 1 μL of C3N quantum dots were added to the samples to be tested and incubated for 2 h at 25° C. The fluorescence of the samples was observed by a fluorescence microscope (with an excitation wavelength of 400 nm). It can be seen that the fluorescence of the A375 cells with PFK15 treatment (PFK15 can block the aerobic glycolysis metabolism and reduce the NAD^+ concentration in cytoplasm) was decreased by 43% compared with that of the group without PFK15 treatment (results were shown in FIG. 5).

SMILES: O=C(C=Cc1ccc2ccccc2n1)c1ccncc1 [PFK15, 1-(4-pyridinyl)-3-(2-quinolinyl)-2-propen-1-one]
- decrease of fluorescence of A375 cells compared with group without PFK15 treatment: 43%
